According to patent US8957017B2, “Dipeptoid prodrugs and their use” (Bayer Intellectual Property GmbH, priority 2007, dated 2015):
Counter-ions that a name gives are not always drawn.

Tests used:
[1] = Determination of the solubility in 5% strength aqueous dextrose solution; assay type: physicochemical; conditions: saline or isotonic, thermodynamic from solid, room temperature, 24 h
Procedure: a) Determination of the Solubility:
The test substance is suspended in 5% strength aqueous dextrose solution. This suspension is shaken at room temperature for 24 h. After ultracentrifugation at 224 000 g for 30 min, the supernatant is diluted with DMSO and analysed by HPLC. A two-point calibration plot of the test compound in DMSO is used for quantification.
Agilent 1100 with DAD (G1315A), quat. Pump (G1311A), autosampler CTC HTS PAL, degasser (G1322A) and column thermostat (G1316A); column: Phenomenex Gemini C18, 5 μm, 50 mm×2 mm; temperature: 40° C.; eluent A: water/phosphoric acid pH 2, eluent B: acetonitrile; flow rate: 0.7 ml/min; gradient: 0-0.5 min 85% A, 15% B; ramp 0.5-3 min 10% A, 90% B; 3-3.5 min 10% A, 90% B; ramp 3.5-4 min 85% A, 15% B; 4-5 min 85% A, 15% B.
Agilent 1100 with DAD (G1315A), quat. pump (G1311A), autosampler CTC HTS PAL, degasser (G1322A) and column thermostat (G1316A); column: VDSoptilab Kromasil 100 C18, 3.5 μm, 60 mm×2.1 mm; temperature: 30° C.; eluent A: water+5 ml of perchloric acid/liter, eluent B: acetonitrile; flow rate: 0.75 ml/min; gradient: 0-0.5 min 98% A, 2% B; ramp 0.5-4.5 min 10% A, 90% B; 4.5-6 min 10% A, 90% B; ramp 6.5-6.7 min 98% A, 2% B; 6.7-7.5 min 98% A, 2% B.

[2] = Stability in buffer at various pH values; assay type: physicochemical
Procedure: b) Stability in Buffer at Various pH Values:
0.3 mg of the test substance is weighed into a 2 ml HPLC vial and 0.5 ml of acetonitrile or acetonitrile/DMSO (9:1) is added. The substance is dissolved by putting the sample vessel in an ultrasonic bath for about 10 seconds. Then 0.5 ml of the respective buffer solution is added, and the sample is again treated in the ultrasonic bath.
pH 2: 0.03 mol of citric acid, 0.061 mol of sodium chloride and 0.0082 mol of hydrochoric acid ad 1 liter of water;
pH 4: 1 liter of Millipore water is adjusted to pH 4.0 with 1 N hydrochloric acid;
pH 5: 0.096 mol of citric acid and 0.2 mol of sodium hydroxide ad 1 liter of water;
pH 6: 0.06 mol of citric acid and 0.16 mol of sodium hydroxide ad 1 liter of water;
pH 7.4: 90.0 g of sodium chloride, 13.61 g of potassium dihydrogen phosphate and 83.35 g of 1 N sodium hydroxide solution are made up to 1 liter with water; this solution is then further diluted 1:10 with Millipore water.
pH 8: 0.013 mol of borax and 0.021 mol of hydrochloric acid ad 1 liter of water.
5 μl portions of the test solution are analyzed by HPLC for their content of unchanged test substance, and of parent substance (A) produced, every hour over a period of 24 hours at 37° C. The percentage areas of the appropriate peaks are used for quantification.
The ratios of the peak areas (F) at the respective time points in relation to the peak areas at the starting time are shown in Table 2 for representative exemplary embodiments: […]

[3] = system: heart rate of anesthetized rats; experiment: Influence on the heart rate of anesthetized rats; assay type: in vivo; conditions: maximum decrease in the first 30 min after i.v. bolus of 100 μg/kg of (A) or equivalent dosages; anesthetized male Wistar rats
Procedure: f) Determination of the Influence on the Heart Rate of Anesthetized Rats:
Male Wistar rats with a body weight above 250 g are employed. In the night before the experiment, the animals receive no feed but still have free access to drinking water. Preparation and investigations are carried out under Trapanal® anesthesia (100 mg/kg i.p.). Injection and infusion take place through a catheter in the jugular vein, and the blood pressure is recorded via a catheter in the femoral artery (transducer: Braun, Melsungen). After the preparation, the animals are connected to a continuous infusion of physiological saline solution to compensate fluid losses. Test substance or placebo solution are administered as bolus after an equilibration time of about 1 h. Heart rate and arterial blood pressure are recorded during the equilibration and over a period of at least 30 min after the bolus injection with the aid of a digital evaluation program.
Table 4 lists the maximum heart rate decrease in the first 30 min after an i.v. bolus of 100 μg/kg of the active substance (A) or of equivalent dosages of representative exemplary embodiments: […]

[4] = i.v. pharmacokinetics in Wistar rats; assay type: in vivo; conditions: after i.v. bolus administration, male Wistar rats
Procedure: d) i.v. Pharmacokinetics in Wistar Rats:
(§1) On the day before administration of the substance, a catheter for obtaining blood is implanted in the jugular vein of the experimental animals (male Wistar rats, body weight 200-250 g) under Isofluran® anesthesia.
(§2) On the day of the experiment, a defined dose of the test substance is administered as solution into the tail vein using a Hamilton® glass syringe (bolus administration, duration of administration <10 s). Blood samples (8-12 time points) are taken through the catheter sequentially over the course of 24 h after administration of the substance. Plasma is obtained by centrifuging the samples in heparinized tubes. Acetonitrile is added to a defined plasma volume per time point to precipitate proteins. After centrifugation, test substance and, where appropriate, known cleavage products of the test substance in the supernatant are determined quantitatively using a suitable LC/MS-MS method.
The measured plasma concentrations are used to calculate pharmacokinetic parameters of the test substance and of the active ingredient compound (A) liberated therefrom, such as AUC, Cmax, T1/2 (half-life) and CL (clearance).

[5] = Oral pharmacokinetics in Wistar rats; assay type: in vivo; conditions: after oral administration by gavage, male Wistar rats
Procedure: e) Oral Pharmacokinetics in Wistar Rats:
as §1
as §2, with “stomach by gavage.” for “tail vein using a Hamilton® glass syringe (bolus administration, duration of administration <10 s).”
The measured plasma concentrations are used to calculate pharmacokinetic parameters of the test substance and of the active ingredient compound (A) liberated therefrom, such as AUC, Cmax, T1/2 (half-life).

SMILES	solubility thermodynamic at 24 h [1]	% test substance after 4 h [F(t = 4 h) × 100/F(t = 0 h)] ([2]; pH 4, 37° C.)	% test substance after 24 h [F(t = 24 h) × 100/F(t = 0 h)] ([2]; pH 4, 37° C.)	% test substance after 4 h [F(t = 4 h) × 100/F(t = 0 h)] ([2]; pH 6, 37° C.)	% test substance after 24 h [F(t = 24 h) × 100/F(t = 0 h)] ([2]; pH 6, 37° C.)	% test substance after 4 h [F(t = 4 h) × 100/F(t = 0 h)] ([2]; pH 7.4, 37° C.)	% test substance after 24 h [F(t = 24 h) × 100/F(t = 0 h)] ([2]; pH 7.4, 37° C.)	% test substance after 4 h [F(t = 4 h) × 100/F(t = 0 h)] ([2]; pH 8, 37° C.)	% test substance after 24 h [F(t = 24 h) × 100/F(t = 0 h)] ([2]; pH 8, 37° C.)	% test substance after 4 h [F(t = 4 h) × 100/F(t = 0 h)] ([2]; pH 5, 37° C.)	% test substance after 24 h [F(t = 24 h) × 100/F(t = 0 h)] ([2]; pH 5, 37° C.)	% test substance after 4 h [F(t = 4 h) × 100/F(t = 0 h)] ([2]; pH 2, 37° C.)	% test substance after 24 h [F(t = 24 h) × 100/F(t = 0 h)] ([2]; pH 2, 37° C.)	Heart rate decrease [3]	detectability of test substance in plasma [4]	detectability of test substance in plasma [5]
N#Cc1c(N)nc(SCc2csc(-c3ccc(Cl)cc3)n2)c(C#N)c1-c1ccc(OCCOC(=O)[C@H](CO)NC(=O)[C@@H](N)CCCCN)cc1 [Example 5, 2-{4-[2-Amino-6-({[2-(4-chlorophenyl)-1,3-thiazol-4-yl]methyl}thio)-3,5-dicyanopyridin-4-yl]-phenoxy}ethyl L-lysyl-L-serinate dihydrochloride]	> 500 µg/mL	100%	100%	95%	70%					100%	98%			12%	no longer detectable in plasma even at the first measurement point	no longer detectable in plasma even at the first measurement point
N#Cc1c(N)nc(SCc2csc(-c3ccc(Cl)cc3)n2)c(C#N)c1-c1ccc(OCCOC(=O)CC[C@H](N)C(=O)NCCN)cc1 [Example 6, 2-{4-[2-Amino-6-({[2-(4-chlorophenyl)-1,3-thiazol-4-yl]methyl}thio)-3,5-dicyanopyridin-4-yl]-phenoxy}ethyl N-(2-aminoethyl)-L-α-glutaminate dihydrochloride]	> 500 µg/mL	100%	100%	78%	25%	8%	0%			96%	80%	100%	100%	17%	no longer detectable in plasma even at the first measurement point	no longer detectable in plasma even at the first measurement point
N#Cc1c(N)nc(SCc2csc(-c3ccc(Cl)cc3)n2)c(C#N)c1-c1ccc(OCCOC(=O)[C@@H](N)CCC(=O)NCCN)cc1 [Example 7, dihydrochloride]	100 µg/mL	100%	98%			51%	2%							15%	no longer detectable in plasma even at the first measurement point	

More lines, main results first:

solubility thermodynamic at 24 h [1]	% test substance after 4 h [F(t = 4 h) × 100/F(t = 0 h)] ([2]; pH 4, 37° C.)	% test substance after 24 h [F(t = 24 h) × 100/F(t = 0 h)] ([2]; pH 4, 37° C.)	% test substance after 4 h [F(t = 4 h) × 100/F(t = 0 h)] ([2]; pH 6, 37° C.)	% test substance after 24 h [F(t = 24 h) × 100/F(t = 0 h)] ([2]; pH 6, 37° C.)	% test substance after 4 h [F(t = 4 h) × 100/F(t = 0 h)] ([2]; pH 7.4, 37° C.)	% test substance after 24 h [F(t = 24 h) × 100/F(t = 0 h)] ([2]; pH 7.4, 37° C.)	% test substance after 4 h [F(t = 4 h) × 100/F(t = 0 h)] ([2]; pH 8, 37° C.)	% test substance after 24 h [F(t = 24 h) × 100/F(t = 0 h)] ([2]; pH 8, 37° C.)	% test substance after 4 h [F(t = 4 h) × 100/F(t = 0 h)] ([2]; pH 5, 37° C.)	% test substance after 24 h [F(t = 24 h) × 100/F(t = 0 h)] ([2]; pH 5, 37° C.)	% test substance after 4 h [F(t = 4 h) × 100/F(t = 0 h)] ([2]; pH 2, 37° C.)	% test substance after 24 h [F(t = 24 h) × 100/F(t = 0 h)] ([2]; pH 2, 37° C.)	SMILES	Heart rate decrease [3]	detectability of test substance in plasma [4]	detectability of test substance in plasma [5]
> 500 µg/mL	100%	100%	100%	100%	99%	96%	99%	90%					CC(C)[C@H](NC(=O)[C@@H](N)CCCCN)C(=O)OCCOc1ccc(-c2c(C#N)c(N)nc(SCc3csc(-c4ccc(Cl)cc4)n3)c2C#N)cc1 [Example 1, 2-{4-[2-Amino-6-({[2-(4-chlorophenyl)-1,3-thiazol-4-yl]methyl}thio)-3,5-dicyanopyridin-4-yl]-phenoxy}ethyl L-lysyl-L-valinate dihydrochloride]	10%		
> 500 µg/mL	100%	100%	97%	84%	48%	2%			100%	98%			C[C@H](NC(=O)[C@@H](N)CCCCN)C(=O)OCCOc1ccc(-c2c(C#N)c(N)nc(SCc3csc(-c4ccc(Cl)cc4)n3)c2C#N)cc1 [Example 4, 2-{4-[2-Amino-6-({[2-(4-chlorophenyl)-1,3-thiazol-4-yl]methyl}thio)-3,5-dicyanopyridin-4-yl]-phenoxy}ethyl L-lysyl-L-alaninate dihydrochloride]	19%	no longer detectable in plasma even at the first measurement point	no longer detectable in plasma even at the first measurement point
